The source of these data is patent US20230331679A1, “NAPHTHALENE MONOIMIDE COMPOUNDS AND METHODS THEREOF” (JAWAHARLAL NEHRU CENTRE FOR ADVANCED SCIENTIFIC RESEARCH, priority 2020, published 2023).

For one data set, the system named is APP/PS1 mice. In words: Amyloid burden in brain by OC immunohistochemistry. It counts as in vivo. An excerpt: To evaluate the activity of TGR63 to ameliorate amyloid burden in in vivo AD model, APP/PS1 mice were bred, maintained and characterized (WT: wild type; AD: APP/PS1 positive) according to the Jackson Laboratory protocols. The double transgenic APP/PS1 mice (B6C3-Tg (APPswe, PSEN IdE9)85Dbo/J; stock number 004462), which express human transgenes APP and presenilin 1 (PS1) in the central nervous system (CNS) contains the Swedish and […], respectively. The K595N/M596L (Swedish) mutation favors the amyloidogenic processing of APP protein, and PS1 mutation ([…]) elevates the production of Aβ peptides through modifying the intra-membrane γ-complex. The presence of Aβ plaques in the APP/PS 1 AD phenotypic mouse brain was confirmed and compared with the healthy brain by Aβ plaques-specific staining protocols. FIG. 13 depicts the Staining of amyloid plaques with OC primary antibody and ThT or CQ probe, FIG. 13A represent the high-resolution confocal microscopy images of cortex and hippocampus regions of the AD mouse brain, immunostained with OC antibody (red), DAPI (blue) and ThT (green). The merged images display significant overlap between ThT and OC staining to confirm the amyloid deposition (pointed with white arrows), FIG. 13A represent the visualization of amyloid deposits associated neuronal damage: The DIC images of different regions of AD. The merged images of DIC and confocal microscopy images show amyloid plaques associated brain damage (pointed out with red arrows). The brains were harvested from the age matched WT and AD mice and treated with PFA (4%) and sucrose solution (30%) for the sagittal brain sectioning (40 µm sections). The brain sections were co-stained with ThT (λex= 442 nm, λem= 482 nm) and OC primary antibody followed by fluorescently labeled secondary antibody (λex= 633 nm, λem= 650 nm) or CQ to visualize and confirm the amyloid plaques deposition. […] Similar fluorescence signals (green and red) were absent in the age-matched WT brain section, confirming the amyloid plaques-free healthy brain (FIG. 13A). The hippocampal damage, a hallmark of advanced AD condition was partially observed in 14 month old APP/PS1 mice. Age-matched AD, and WT cohorts were administered with TGR63 (5 mg/kg body weight/day) and vehicle starting from the age of 6 months following the treatment protocols as shown in FIG. 14. The experimental mice were sacrificed after completing the behavioral studies (14 months) to investigate amyloid deposits in the brain using immunohistochemistry. The sagittal brain sections were permeabilized and blocked with PBTx (0.1 M PBS and 0.1% TritonX-100) and goat serum (1%) containing BSA (2%) at room temperature, respectively. […]

The next data set addresses T1, Aβ42 peptide (Homo sapiens, UniProt P05067).
T1 construct: commercially available β-amyloid peptide (1-42), human; purchased marck (so in the source) PP69-.025 mg
In words: 1H NMR study of molecular interactions between TGR63 and Aβ42. It counts as binding. To be noted: Aβ42 10 µM, D2O (12%) containing PBS, 24, 48 and 72 h. The procedure: Nuclear magnetic resonance (NMR) spectroscopy was performed to ascertain the molecular level interactions between TGR63 and Aβ42 peptide. ^1H NMR spectra of TGR63 were acquired in absence and presence of Aβ42 (10 µM) peptides using the WATERGATE sequence for solvent suppression in deuterium oxide (D2O, 12%) containing PBS at different incubation time points (24, 48 and 72 h). […] The aromatic protons of NMI and aniline moieties (a-f) appeared at 6.5-8.8 ppm, respectively. However, the splitting patterns of all the aromatic peaks were completely readjusted undergoing a significant downfield shift over a period of time in the presence of Aβ42 peptide. This observation confirmed the interaction of aromatic moieties (π-electron rich) of TGR63 with native and misfolded Aβ42 peptides, which leads to alteration in the extent of nuclei and proximal electron coupling (J-couplings).

Data set [1] is described as follows: Serum stability under in vitro conditions (absorbance). To be noted: WT mouse blood serum, 0.5, 1, 2 and 6 h at 37° C. It counts as in vitro ADME.

T1 sequence (P05067 672-713 limits assumed): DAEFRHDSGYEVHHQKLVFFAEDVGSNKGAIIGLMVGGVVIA

Consider `CN(C)c1ccc(C#Cc2ccc3c4c(cccc24)C(=O)N(CC[N+](C)(C)C)C3=O)cc1` [TGR63, 2-(6-((4-(dimethylamino)phenyl)ethynyl)-1,3-dioxo-1H-benzo[de]isoquinolin-2(3H)-yl)-N,N,N-trimethylethan-1-aminium], for which, in the data set with APP/PS1 mice (AD (APP/PS1) mice, 5 mg/kg body weight/day from 6 to 14 months, vehicle 6.28%), the “Aβ plaques deposits, area of the hippocampus” value turned out to be 0.94 % area. In addition, in the data set on APP/PS1 mice (AD (APP/PS1) mice, 5 mg/kg body weight/day from 6 to 14 months, vehicle 8.87%), the “Aβ plaques deposits, area of the cortex” value is 1.94 % area. Moreover, in the data set on APP/PS1 mice (AD mice, versus vehicle), the “reduction of Aβ deposits in the cortex” value stood at 78% and the “reduction of Aβ deposits in the hippocampus” value is on record as 85%. At Aβ42 peptide, the “interaction with Aβ42 peptides (1H NMR)” value is “interacts with native and misfolded Aβ42 peptides”. Besides, the “stability in blood serum (normalized absorbance at 450 nm)” value in data set [1] is given as “confirmed the stability of TGR63 in blood serum”.
